Molecules are shown by their SMILES.

Results on 5 molecules are retold here after ChEMBL document CHEMBL4742400, “Protein kinase mkk4 inhibitors for promoting liver regeneration or reducing or preventing hepatocyte death” (2019).

For assay [1], the species on record is Homo sapiens. Briefly: Selectivity index, ratio of inhibition of B-raf (unknown origin) to inhibition of partial length human MKK4 (S84 to D399 residues) expressed in mammalian expression system assessed as residual percent of control binding at 100 nM relative to control.
For assay [2], the species on record is Homo sapiens. The experiment in a line: Selectivity index, ratio of inhibition of full length human MKK7 (M1 to R419 residues) expressed in mammalian expression system assessed as residual percent of control binding at 100 nM relative to control to inhibition of partial length human MKK4 (S84 to D399 residues) expressed in mammalian expression system assessed as residual percent of control binding at 100 nM relative to control.

The species named for assay [3] is Homo sapiens. Briefly: Selectivity index, ratio of inhibition of full length human JNK1 (M1 to Q384 residues) expressed in mammalian expression system assessed as residual percent of control binding at 100 nM relative to control to inhibition of partial length human MKK4 (S84 to D399 residues) expressed in mammalian expression system assessed as residual percent of control binding at 100 nM relative to control.

Consider `CCCS(=O)(=O)Nc1ccc(F)c(C(=O)c2n[nH]c3ncc(-c4cccc([N+](=O)[O-])c4)cc23)c1F`, for which the Selectivity ratio in assay [1] was less than 3; in assay [2] it was 3; in assay [3] it was 3.
`CCCS(=O)(=O)Nc1ccc(F)c(C(=O)c2n[nH]c3ncc(-c4cccc(O)c4)cc23)c1F`: the Selectivity ratio in assay [1] was 3; in assay [2], greater than 30; in assay [3], 3.
In the case of `CCCS(=O)(=O)Nc1ccc(F)c(C(=O)c2n[nH]c3ncc(-c4ccc(S(C)(=O)=O)cc4)cc23)c1F`, the values for the Selectivity ratio in assay [1], in assay [2] and in assay [3] were less than 3, greater than 30 and greater than 30, respectively.
For the molecule `CCCS(=O)(=O)Nc1ccc(F)c(C(=O)c2n[nH]c3ncc(-c4ccccc4F)cc23)c1F`, the Selectivity ratio in assay [1] was 10; in assay [2], greater than 30; in assay [3] it was greater than 30.
As for `CCCS(=O)(=O)Nc1ccc(F)c(C(=O)c2n[nH]c3ncc(-c4ccc(C(F)(F)F)cc4)cc23)c1F`, the Selectivity ratio in assay [1] was less than 3; in assay [2], 3; in assay [3], 3.
